Reference: US9212165B2, “Bicarbocyclic and tricarbocyclic ethynyl derivatives and uses of same” (H. Lundbeck A/S, priority 2011, dated 2015)

Molecular target: mGluR5 (MPEP binding site) (Homo sapiens (Human), UniProt P41594)
Assay: Radioligand binding assay (MPEP site radioligand, membrane filtration)
Details: 5 nM radioligand binding to MPEP site; Cheng-Prusoff
Method: Binding assays were performed as described in [J. A. O'Brien et al. Mol Pharmacol., 2003, 64, 731-740] with slight modifications, including that a radioligand that binds to the […] (MPEP) binding site was used in place of [^3H] MPEP. Briefly, after thawing, the membrane homogenates were resuspended in 50 mM Tris-HCl and 0.9% NaCl binding buffer at pH 7.4 to a final assay concentration of 20 μg protein/well for radioligand filtration binding. Incubations included 5 nM radioligand, membranes and either buffer or varying concentrations of compound. Samples were incubated for 60 min at room temperature with shaking. Non-specific binding was defined with 10 μM cold MPEP when using the radioligand. After incubation, samples were filtered over a GF/C filter (presoaked in 0.25% polyethyleneimine (PEI)) and then washed 4 times using a Tomtec® Harvester 96® Mach III cell harvester (Tomtec, Hamden, Conn.) with 0.5 mL ice-cold 50 mM Tris-HCl (pH 7.4).
IC50 values were derived from the inhibition curve and Ki values were calculated according to the Cheng and Prusoff equation of Ki=IC50/(1+[L]/Kd) described in [Y. Cheng and W. H. Prusoff Biochem. Pharmacal. 1973, 22, 3099-3108] where [L] is the concentration of radioligand and Kd is its dissociation constant at the receptor, derived from the saturation isotherm.

Sequence of mGluR5 (MPEP binding site) (P41594 21-1212): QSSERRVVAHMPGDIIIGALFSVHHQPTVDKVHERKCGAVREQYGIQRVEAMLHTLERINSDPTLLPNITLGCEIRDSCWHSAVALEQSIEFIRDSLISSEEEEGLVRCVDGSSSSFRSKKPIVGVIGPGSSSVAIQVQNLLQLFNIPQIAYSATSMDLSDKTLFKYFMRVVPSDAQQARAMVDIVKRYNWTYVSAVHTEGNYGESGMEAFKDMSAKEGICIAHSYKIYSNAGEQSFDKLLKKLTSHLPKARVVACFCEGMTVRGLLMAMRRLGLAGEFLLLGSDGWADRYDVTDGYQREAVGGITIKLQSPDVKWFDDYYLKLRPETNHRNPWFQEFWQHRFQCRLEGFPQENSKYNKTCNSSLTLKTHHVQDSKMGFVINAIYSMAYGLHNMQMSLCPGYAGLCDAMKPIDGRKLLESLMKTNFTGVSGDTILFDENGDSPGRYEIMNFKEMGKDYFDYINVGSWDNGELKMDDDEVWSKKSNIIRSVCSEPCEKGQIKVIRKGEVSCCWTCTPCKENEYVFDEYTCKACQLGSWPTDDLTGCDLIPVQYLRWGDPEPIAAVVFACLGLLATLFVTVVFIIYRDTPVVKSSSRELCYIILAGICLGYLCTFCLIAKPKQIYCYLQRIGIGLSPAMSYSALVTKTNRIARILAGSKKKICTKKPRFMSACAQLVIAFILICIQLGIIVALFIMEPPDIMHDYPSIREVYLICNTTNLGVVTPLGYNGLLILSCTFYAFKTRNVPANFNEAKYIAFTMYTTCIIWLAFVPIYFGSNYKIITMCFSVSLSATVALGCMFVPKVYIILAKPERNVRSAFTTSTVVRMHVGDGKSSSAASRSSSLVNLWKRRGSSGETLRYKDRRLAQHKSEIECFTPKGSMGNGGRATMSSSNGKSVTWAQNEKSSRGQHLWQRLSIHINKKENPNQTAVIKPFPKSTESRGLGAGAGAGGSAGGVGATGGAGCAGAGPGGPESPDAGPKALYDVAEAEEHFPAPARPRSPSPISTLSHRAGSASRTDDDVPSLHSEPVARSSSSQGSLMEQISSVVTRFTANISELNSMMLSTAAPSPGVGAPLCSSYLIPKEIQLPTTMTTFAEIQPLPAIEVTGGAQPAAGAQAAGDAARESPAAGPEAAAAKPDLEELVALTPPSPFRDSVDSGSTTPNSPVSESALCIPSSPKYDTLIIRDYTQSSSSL

O=C(NC12CCCC(C#Cc3cccc(F)c3)(CC1)C2)c1cnccn1 (stereo not shown) [Example 3, pyrazine-2-carboxylic acid [5-(3-fluoro-phenylethynyl)-bicyclo[3.2.1]oct-1-yl]-amide] showed a Ki of 3 nM.

O=C(NC12CCCC(C#Cc3cnccn3)(CC1)C2)c1cccc(Cl)c1 (stereo not shown) [Example 13, 3-Chloro-N-(5-pyrazin-2-ylethynyl-bicyclo[3.2.1]oct-1-yl)-benzamide] gave a Ki of 91 nM.

For Cc1nccc(C(=O)N[C@]23CCC[C@](C#Cc4ccccn4)(CC2)C3)n1 [Example 18, 2-methyl-N-((1R,5S)-5-(pyridin-2-ylethynyl)bicyclo[3.2.1]octan-1-yl)pyrimidine-4-carboxamide], the Ki was 10 nM.

O=C(N[C@]12CCC[C@](C#Cc3ccccn3)(CC1)C2)c1ccc(F)cn1 [Example 20, 5-fluoro-N-((1R,5S)-5-(pyridin-2-ylethynyl)bicyclo[3.2.1]octan-1-yl)picolinamide] showed a Ki of 11 nM.

With Cc1nccc(C(=O)N[C@@]23CCC[C@@](C#Cc4ccccn4)(CC2)C3)n1 [Example 28, 2-methyl-N-((1S,5R)-5-(pyridin-2-ylethynyl)bicyclo[3.2.1]octan-1-yl)pyrimidine-4-carboxamide] the Ki was 17 nM.

In the case of O=C(N[C@@]12CCC[C@@](C#Cc3ccccn3)(CC1)C2)c1ccc(F)cn1 [Example 30, 5-fluoro-N-((1S,5R)-5-(pyridin-2-ylethynyl)bicyclo[3.2.1]octan-1-yl)picolinamide], the Ki is reported as 35 nM.

Cn1ccc(C(=O)N[C@]23CCC[C@](C#Cc4cnccn4)(CC2)C3)n1 [Example 44, 1-methyl-N-((1R,5S)-5-(pyrazin-2-ylethynyl)bicyclo[3.2.1]octan-1-yl)-1H-pyrazole-3-carboxamide] gave a Ki of 34 nM.

Cc1csc(C(=O)N[C@]23CCC[C@](C#Cc4cnccn4)(CC2)C3)n1 [Example 45, 4-methyl-N-((1R,5S)-5-(pyrazin-2-ylethynyl)bicyclo[3.2.1]octan-1-yl)thiazole-2-carboxamide] gave a Ki of 6.2 nM.

Cn1ccc(C(=O)N[C@@]23CCC[C@@](C#Cc4cnccn4)(CC2)C3)n1 [Example 49, 1-methyl-N-((1S,5R)-5-(pyrazin-2-ylethynyl)bicyclo[3.2.1]octan-1-yl)-1H-pyrazole-3-carboxamide] gave a Ki of 590 nM.

With Cc1csc(C(=O)N[C@@]23CCC[C@@](C#Cc4cnccn4)(CC2)C3)n1 [Example 50, 4-methyl-N-((1S,5R)-5-(pyrazin-2-ylethynyl)bicyclo[3.2.1]octan-1-yl)thiazole-2-carboxamide] the Ki was 38 nM.

In the case of Cc1cncc(C#CC23CC4CC(C2)CC(NC(=O)c2cccc(F)c2)(C4)C3)n1 [Example 56, 3-fluoro-N-[3-(6-methylpyrazin-2-ylethynyl)-1-adamantyl]benzamide], the Ki is reported as 1300 nM.

Compound O=C(NC12CC3CC(CC(C#Cc4ccccn4)(C3)C1)C2)c1cnccn1 [Example 71, N-[3-(pyridin-2-ylethynyl)-1-adamantyl]pyrazine-2-carboxamide] has a Ki of 4.7 nM.

Cc1csc(C#CC23CC4CC(C2)CC(NC(=O)c2ccn(C)n2)(C4)C3)n1 [Example 81, 1-methyl-N-[3-(4-methylthiazol-2-ylethynyl)-1-adamantyl]-1H-pyrazole-3-carboxamide] showed a Ki of 120 nM.
